Assay results: ChEMBL document CHEMBL5365394, “Design, synthesis and biological evaluation of novel spiro-quinazolinone derivatives as chitin synthase inhibitors and antifungal agents” (Eur J Med Chem, 2023)
pIC50: −log10 of the molar value. In brackets after ≈: the same amount, converted by molar mass.

Tests used:
[1] = test system: Cryptococcus neoformans; experiment: Antifungal activity against Cryptococcus neoformans ATCC 32719 assessed as fungal growth inhibition incubated for 24 hrs by two-fold serial dilution method; type: functional
[2] = test system: Candida albicans; experiment: Antifungal activity against Micafungin-resistant Candida albicans ATCC 76615R assessed as fungal growth inhibition; type: functional
[3] = test system: Cryptococcus neoformans; experiment: Antifungal activity against Cryptococcus neoformans ATCC 32719 assessed as inhibition of cell wall synthesis incubated for 24 hrs in presence of sorbitol; type: functional
[4] = test system: Aspergillus flavus; experiment: Antifungal activity against Fluconazole-resistant Aspergillus flavus ATCC 16870R assessed as fungal growth inhibition; type: functional
[5] = test system: Aspergillus flavus; experiment: Antifungal activity against Aspergillus flavus ATCC 16870 assessed as inhibition of cell wall synthesis incubated for 24 hrs in presence of sorbitol; type: functional
[6] = test system: Aspergillus fumigatus; experiment: Antifungal activity against Aspergillus fumigatus GIMCC 3.19 assessed as inhibition of cell wall synthesis incubated for 24 hrs in absence of sorbitol; type: functional
[7] = test system: Candida albicans; experiment: Antifungal activity against Candida albicans ATCC 76615 assessed as inhibition of cell wall synthesis incubated for 24 hrs in absence of sorbitol; type: functional
[8] = test system: Cryptococcus neoformans; experiment: Synergistic antifungal activity against Cryptococcus neoformans ATCC 32719 assessed as polyoxin B MIC incubated for 24 hrs in by checkerboard broth microdilution method; type: functional
[9] = test system: Aspergillus fumigatus; experiment: Antifungal activity against Aspergillus fumigatus GIMCC 3.19 assessed as fungal growth inhibition incubated for 24 hrs by two-fold serial dilution method; type: functional
[10] = test system: Aspergillus flavus; experiment: Synergistic antifungal activity against Aspergillus flavus ATCC 16870 assessed as polyoxin B MIC incubated for 24 hrs by checkerboard broth microdilution method; type: functional
[11] = test system: Candida albicans; experiment: Additive antifungal activity against Candida albicans ATCC 76615 assessed as fractional inhibitory concentration index incubated for 24 hrs in presence of fluconazole by checkerboard broth microdilution method; type: functional
[12] = test system: Cryptococcus neoformans; experiment: Antifungal activity against Cryptococcus neoformans ATCC 32719 assessed as inhibition of cell wall synthesis incubated for 24 hrs in absence of sorbitol; type: functional
[13] = test system: Aspergillus flavus; experiment: Antifungal activity against Aspergillus flavus ATCC 16870 assessed as fungal growth inhibition incubated for 24 hrs by two-fold serial dilution method; type: functional
[14] = Inhibition of Candida tropicalis ATCC 750 chitin synthase using UDP-GlcNAc as substrate incubated for 1 hr by absorbance based assay
[15] = test system: Candida albicans; experiment: Antifungal activity against Fluconazole-resistant Candida albicans ATCC 76615R assessed as fungal growth inhibition; type: functional
[16] = test system: Aspergillus flavus; experiment: Additive antifungal activity against Aspergillus flavus ATCC 16870 assessed as fractional inhibitory concentration index incubated for 24 hrs in presence of polyoxin B by checkerboard broth microdilution method; type: functional
[17] = test system: Candida tropicalis; experiment: Inhibition of Candida tropicalis ATCC 750 chitin synthase using […] as substrate at 300 ug/ml incubated for 1 hr by absorbance based assay relative to control; conditions: dose 300.0 µg/ml
[18] = test system: Aspergillus fumigatus; experiment: Synergistic antifungal activity against Aspergillus fumigatus GIMCC 3.19 assessed as fluconazole MIC incubated for 24 hrs in by checkerboard broth microdilution method; type: functional
[19] = test system: Candida albicans; experiment: Synergistic antifungal activity against Candida albicans ATCC 76615 assessed as fluconazole MIC incubated for 24 hrs in by checkerboard broth microdilution method; type: functional
[20] = test system: Cryptococcus neoformans; experiment: Synergistic antifungal activity against Cryptococcus neoformans ATCC 32719 assessed as fluconazole MIC incubated for 24 hrs in by checkerboard broth microdilution method; type: functional
[21] = test system: Cryptococcus neoformans; experiment: Additive antifungal activity against Cryptococcus neoformans ATCC 32719 assessed as fractional inhibitory concentration index incubated for 24 hrs in presence of fluconazole by checkerboard broth microdilution method; type: functional
[22] = test system: Aspergillus flavus; experiment: Synergistic antifungal activity against Aspergillus flavus ATCC 16870 assessed as fluconazole MIC incubated for 24 hrs in by checkerboard broth microdilution method; type: functional
[23] = test system: Aspergillus flavus; experiment: Antifungal activity against Aspergillus flavus ATCC 16870 assessed as inhibition of cell wall synthesis incubated for 24 hrs in absence of sorbitol; type: functional
[24] = test system: Cryptococcus neoformans; experiment: Antifungal activity against Fluconazole-resistant Cryptococcus neoformans ATCC 32719R assessed as fungal growth inhibition; type: functional
[25] = test system: Aspergillus flavus; experiment: Additive antifungal activity against Aspergillus flavus ATCC 16870 assessed as fractional inhibitory concentration index incubated for 24 hrs in presence of fluconazole by checkerboard broth microdilution method; type: functional
[26] = test system: Candida albicans; experiment: Synergistic antifungal activity against Candida albicans ATCC 76615 assessed as polyoxin B MIC incubated for 24 hrs by checkerboard broth microdilution method; type: functional
[27] = test system: Aspergillus fumigatus; experiment: Additive antifungal activity against Aspergillus fumigatus GIMCC 3.19 assessed as fractional inhibitory concentration index incubated for 24 hrs in presence of polyoxin B by checkerboard broth microdilution method; type: functional
[28] = test system: Candida albicans; experiment: Antifungal activity against Candida albicans ATCC 76615 assessed as fungal growth inhibition incubated for 24 hrs by two-fold serial dilution method; type: functional
[29] = test system: Aspergillus fumigatus; experiment: Antifungal activity against Aspergillus fumigatus GIMCC 3.19 assessed as inhibition of cell wall synthesis incubated for 24 hrs in presence of sorbitol; type: functional
[30] = test system: Aspergillus fumigatus; experiment: Additive antifungal activity against Aspergillus fumigatus GIMCC 3.19 assessed as fractional inhibitory concentration index incubated for 24 hrs in presence of fluconazole by checkerboard broth microdilution method; type: functional
[31] = test system: Candida albicans; experiment: Antifungal activity against Candida albicans ATCC 76615 assessed as inhibition of cell wall synthesis incubated for 24 hrs in presence of sorbitol; type: functional
[32] = test system: Aspergillus fumigatus; experiment: Synergistic antifungal activity against Aspergillus fumigatus GIMCC 3.19 assessed as polyoxin B MIC incubated for 24 hrs by checkerboard broth microdilution method; type: functional
[33] = test system: Aspergillus fumigatus; experiment: Antifungal activity against Fluconazole-resistant Aspergillus fumigatus GIMCC 3.19R assessed as fungal growth inhibition; type: functional
[34] = test system: Cryptococcus neoformans; experiment: Additive antifungal activity against Cryptococcus neoformans ATCC 32719 assessed as fractional inhibitory concentration index incubated for 24 hrs in presence of polyoxin B by checkerboard broth microdilution method; type: functional
[35] = test system: Candida albicans; experiment: Synergistic antifungal activity against Candida albicans ATCC 76615 assessed as fractional inhibitory concentration index incubated for 24 hrs in presence of polyoxin B by checkerboard broth microdilution method; type: functional
[36] = test system: Cryptococcus neoformans; experiment: Synergistic antifungal activity against Cryptococcus neoformans ATCC 32719 assessed as fractional inhibitory concentration index incubated for 24 hrs in presence of fluconazole by checkerboard broth microdilution method; type: functional
[37] = test system: Aspergillus fumigatus; experiment: Synergistic antifungal activity against Aspergillus fumigatus GIMCC 3.19 assessed as fractional inhibitory concentration index incubated for 24 hrs in presence of polyoxin B by checkerboard broth microdilution method; type: functional
[38] = test system: Cryptococcus neoformans; experiment: Synergistic antifungal activity against Cryptococcus neoformans ATCC 32719 assessed as fractional inhibitory concentration index incubated for 24 hrs in presence of polyoxin B by checkerboard broth microdilution method; type: functional
[39] = test system: Candida albicans; experiment: Additive antifungal activity against Candida albicans ATCC 76615 assessed as fractional inhibitory concentration index incubated for 24 hrs in presence of polyoxin B by checkerboard broth microdilution method; type: functional
[40] = test system: Aspergillus fumigatus; experiment: Synergistic antifungal activity against Aspergillus fumigatus GIMCC 3.19 assessed as fractional inhibitory concentration index incubated for 24 hrs in presence of fluconazole by checkerboard broth microdilution method; type: functional
[41] = test system: Aspergillus flavus; experiment: Synergistic antifungal activity against Aspergillus flavus ATCC 16870 assessed as fractional inhibitory concentration index incubated for 24 hrs in presence of fluconazole by checkerboard broth microdilution method; type: functional

Row | SMILES | MIC [1] [µg/mL] | MIC [2] [µg/mL] | MIC [3] [µg/mL] | MIC [4] [µg/mL] | MIC [5] [µg/mL] | MIC [6] [µg/mL] | MIC [7] [µg/mL] | MIC [8] [µg/mL] | MIC [9] [µg/mL] | MIC [10] [µg/mL] | fractional inhibitory concentration index (FICI) [11] | MIC [12] [µg/mL] | MIC [13] [µg/mL] | pIC50 [14] | MIC [15] [µg/mL] | fractional inhibitory concentration index (FICI) [16] | inhibition [17] [%] | MIC [18] [µg/mL] | MIC [19] [µg/mL] | MIC [20] [µg/mL] | other results
1 | Cc1ccc([N+](=O)[O-])cc1NC(=O)/C=C/C(=O)Nc1ccc2c(c1)C(=O)NC1(CCSC1)N2 (stereo not given) | 8 (≈ 17.1 µM) | 16 (≈ 34.2 µM) | 128 | 32 (≈ 68.4 µM) | 256 | 16 (≈ 34.2 µM) | 8 (≈ 17.1 µM) | 16 | 16 (≈ 34.2 µM) | 2 | 1.5 | 16 (≈ 34.2 µM) | 16 (≈ 34.2 µM) | 3.91 | 16 (≈ 34.2 µM) | 1.125 | 77.4 | 1 | 2 | 2 | fractional inhibitory concentration index (FICI) [21]: 1.5; MIC [22]: 1 µg/mL; MIC [23]: 16 µg/mL (≈ 34.2 µM); MIC [24]: 32 µg/mL (≈ 68.4 µM); fractional inhibitory concentration index (FICI) [25]: 1.25; MIC [26]: 2 µg/mL; fractional inhibitory concentration index (FICI) [27]: 1.125; MIC [28]: 2 µg/mL (≈ 4.28 µM); MIC [29]: 128 µg/mL; fractional inhibitory concentration index (FICI) [30]: 1.125; MIC [31]: 128 µg/mL; MIC [32]: 2 µg/mL; MIC [33]: 16 µg/mL (≈ 34.2 µM); fractional inhibitory concentration index (FICI) [34]: 1.5; fractional inhibitory concentration index (FICI) [35]: 0.5
2 | O=C(/C=C/C(=O)Nc1ccc2c(c1)C(=O)NC1(CCSC1)N2)Nc1ccc(Br)cc1 (stereo not given) | 2 (≈ 4.1 µM) | 16 (≈ 32.8 µM) | 128 | 32 (≈ 65.7 µM) | 256 | 16 (≈ 32.8 µM) | 16 (≈ 32.8 µM) | 4 | 8 (≈ 16.4 µM) | 2 | 1.5 | 8 (≈ 16.4 µM) | 16 (≈ 32.8 µM) | 3.93 | 32 (≈ 65.7 µM) | 1.125 | 75.3 | 1 | 1 | 2 | fractional inhibitory concentration index (FICI) [36]: 0.75; MIC [22]: 4 µg/mL; fractional inhibitory concentration index (FICI) [37]: 1; MIC [23]: 32 µg/mL (≈ 65.7 µM); MIC [24]: 8 µg/mL (≈ 16.4 µM); fractional inhibitory concentration index (FICI) [25]: 1.5; MIC [26]: 2 µg/mL; fractional inhibitory concentration index (FICI) [38]: 0.75; fractional inhibitory concentration index (FICI) [39]: 1.25; MIC [28]: 16 µg/mL (≈ 32.8 µM); MIC [29]: 256 µg/mL; fractional inhibitory concentration index (FICI) [30]: 1.125; MIC [31]: 128 µg/mL; MIC [32]: 8 µg/mL; MIC [33]: 16 µg/mL (≈ 32.8 µM)
3 | O=C(/C=C/C(=O)Nc1ccc(Cl)cc1Cl)Nc1ccc2c(c1)C(=O)NC1(CCSC1)N2 (stereo not given) | 8 (≈ 16.8 µM) | 16 (≈ 33.5 µM) | 128 | 32 (≈ 67 µM) | 256 | 16 (≈ 33.5 µM) | 16 (≈ 33.5 µM) | 16 | 8 (≈ 16.8 µM) | 16 | 1.5 | 16 (≈ 33.5 µM) | 8 (≈ 16.8 µM) | 3.86 | 32 (≈ 67 µM) | 2 | 73.9 | 2 | 2 | 2 | fractional inhibitory concentration index (FICI) [21]: 1.5; MIC [22]: 4 µg/mL; MIC [23]: 32 µg/mL (≈ 67 µM); MIC [24]: 32 µg/mL (≈ 67 µM); fractional inhibitory concentration index (FICI) [40]: 0.75; fractional inhibitory concentration index (FICI) [25]: 1.25; MIC [26]: 2 µg/mL; fractional inhibitory concentration index (FICI) [27]: 1.5; fractional inhibitory concentration index (FICI) [39]: 1.25; MIC [28]: 8 µg/mL (≈ 16.8 µM); MIC [29]: 128 µg/mL; MIC [31]: 256 µg/mL; MIC [32]: 8 µg/mL; MIC [33]: 16 µg/mL (≈ 33.5 µM); fractional inhibitory concentration index (FICI) [34]: 1.5
4 | O=C(/C=C/C(=O)Nc1ccccc1[N+](=O)[O-])Nc1ccc2c(c1)C(=O)NC1(CCSC1)N2 (stereo not given) | 4 (≈ 8.82 µM) | 8 (≈ 17.6 µM) | 128 | 16 (≈ 35.3 µM) | 128 | 4 (≈ 8.82 µM) | 8 (≈ 17.6 µM) | 16 | 1 (≈ 2.21 µM) | 16 | 1.125 | 8 (≈ 17.6 µM) | 1 (≈ 2.21 µM) | 3.99 | 8 (≈ 17.6 µM) | 1.125 | 81.9 | 1 | 2 | 0.5 | fractional inhibitory concentration index (FICI) [41]: 1; fractional inhibitory concentration index (FICI) [21]: 1.125; MIC [22]: 2 µg/mL; fractional inhibitory concentration index (FICI) [37]: 0.625; MIC [23]: 8 µg/mL (≈ 17.6 µM); MIC [24]: 8 µg/mL (≈ 17.6 µM); fractional inhibitory concentration index (FICI) [40]: 0.375; MIC [26]: 4 µg/mL; MIC [28]: 1 µg/mL (≈ 2.21 µM); MIC [29]: 64 µg/mL; MIC [31]: 128 µg/mL; MIC [32]: 2 µg/mL; MIC [33]: 8 µg/mL (≈ 17.6 µM); fractional inhibitory concentration index (FICI) [34]: 1.5; fractional inhibitory concentration index (FICI) [35]: 0.75
